The source made the active and inactive calls. No cut-off for these calls is given here.
Legend:
[1] = target: T1, Glucagon-like peptide 1 receptor (Homo sapiens, UniProt P43220); assay: Agonist activity human GLP-1R stably expressed in HEK293 cells assessed as increase in intracellular cAMP level incubated for 30 mins by multiplate reader analysis; assay type: functional, cell-based
Pancreatic islet = assay: Induction of insulin secretion in mouse Pancreatic islet cells expressing hGLP1R at 10 nM measured for 2 hrs by HTRF analysis; assay type: functional, cell-based
Mus musculus [2] = assay: Antidiabetic activity in hGLP1R-knock in mouse model assessed as reduction in blood glucose level at 3 mg/kg, ip pretreated with compound for 15 mins followed glucose addition and measured after 120 mins by OGTT analysis; assay type: functional, organism-based; conditions: time 135.0 min
Mus musculus [3] = assay: Antidiabetic activity in hGLP1R-knock in mouse model assessed as reduction in blood glucose level at 3 mg/kg, ip pretreated with compound for 15 mins followed glucose addition and measured after 30 to 120 mins by OGTT analysis; assay type: functional, organism-based; conditions: time 45-135 min
[4] = target: T1, Glucagon-like peptide 1 receptor; assay: Agonist activity at GLP-1R (unknown origin) transfected in HEK293 cells assessed as beta-arrestin1 recruitment incubated for 5 mins by Envision multiplate reader analysis; assay type: functional, cell-based
[5] = target: T1, Glucagon-like peptide 1 receptor; assay: Agonist activity at GLP-1R (unknown origin) transfected in HEK293 cells assessed as beta-arrestin2 recruitment incubated for 5 mins by Envision multiplate reader analysis; assay type: functional, cell-based
[6] = target: T2, Glucagon-like peptide 2 receptor (Homo sapiens) (UniProt O95838); assay: Agonist activity human GLP-2R stably expressed in HEK293 cells assessed as […] in intracellular cAMP level up to 100 uM incubated for 30 mins by multiplate reader analysis; assay type: functional, cell-based
T2 sequence (whole entry): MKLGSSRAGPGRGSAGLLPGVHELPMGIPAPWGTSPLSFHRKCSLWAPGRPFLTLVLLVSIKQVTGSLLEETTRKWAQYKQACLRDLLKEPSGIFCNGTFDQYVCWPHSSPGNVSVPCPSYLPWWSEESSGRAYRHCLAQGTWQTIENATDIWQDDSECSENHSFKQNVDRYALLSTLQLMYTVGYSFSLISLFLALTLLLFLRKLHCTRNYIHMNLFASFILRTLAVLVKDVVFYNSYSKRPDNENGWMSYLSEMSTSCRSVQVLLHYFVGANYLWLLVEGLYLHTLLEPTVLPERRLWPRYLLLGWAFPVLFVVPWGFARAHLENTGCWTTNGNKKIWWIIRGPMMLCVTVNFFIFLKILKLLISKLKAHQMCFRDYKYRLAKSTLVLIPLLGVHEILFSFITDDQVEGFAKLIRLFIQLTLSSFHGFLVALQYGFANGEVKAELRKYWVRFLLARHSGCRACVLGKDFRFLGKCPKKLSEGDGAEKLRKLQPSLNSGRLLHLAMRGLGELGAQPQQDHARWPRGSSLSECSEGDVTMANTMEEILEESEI

[7] = target: T3, Gastric inhibitory polypeptide receptor (Homo sapiens) (UniProt P48546); assay: Agonist activity human GIPR stably expressed in HEK293 cells assessed as […] in intracellular cAMP level up to 100 uM incubated for 30 mins by multiplate reader analysis; assay type: functional, cell-based
T3 sequence (whole entry): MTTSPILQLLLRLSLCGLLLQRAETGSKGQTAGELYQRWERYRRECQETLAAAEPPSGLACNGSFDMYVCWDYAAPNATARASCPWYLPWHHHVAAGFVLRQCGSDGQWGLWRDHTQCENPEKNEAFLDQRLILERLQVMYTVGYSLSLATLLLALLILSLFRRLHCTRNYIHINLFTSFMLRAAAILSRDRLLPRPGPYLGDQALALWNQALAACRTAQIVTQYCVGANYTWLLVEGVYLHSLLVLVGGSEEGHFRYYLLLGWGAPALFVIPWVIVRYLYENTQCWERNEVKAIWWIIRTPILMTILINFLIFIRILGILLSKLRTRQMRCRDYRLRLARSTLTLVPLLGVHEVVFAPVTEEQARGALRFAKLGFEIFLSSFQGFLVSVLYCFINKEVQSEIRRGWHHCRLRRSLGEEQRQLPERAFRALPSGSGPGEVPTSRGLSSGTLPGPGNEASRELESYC

[8] = target: Glucagon receptor (Homo sapiens) (UniProt P47871); assay: Agonist activity human GCGR stably expressed in HEK293 cells assessed as […] in intracellular cAMP level up to 100 uM incubated for 30 mins by multiplate reader analysis; assay type: functional, cell-based
Mus musculus [9] = assay: Antidiabetic activity in hGLP1R-knock in mouse model assessed as reduction in blood glucose AUC (0 to 120 mins) at 3 mg/kg, ip pretreated with compound for 15 mins followed glucose addition and measured after 120 mins by OGTT analysis; assay type: functional; set-up: scale not given: the % may be the effect or the level left; conditions: time 135 min, 2.25 h

T1 sequence (P43220 whole entry): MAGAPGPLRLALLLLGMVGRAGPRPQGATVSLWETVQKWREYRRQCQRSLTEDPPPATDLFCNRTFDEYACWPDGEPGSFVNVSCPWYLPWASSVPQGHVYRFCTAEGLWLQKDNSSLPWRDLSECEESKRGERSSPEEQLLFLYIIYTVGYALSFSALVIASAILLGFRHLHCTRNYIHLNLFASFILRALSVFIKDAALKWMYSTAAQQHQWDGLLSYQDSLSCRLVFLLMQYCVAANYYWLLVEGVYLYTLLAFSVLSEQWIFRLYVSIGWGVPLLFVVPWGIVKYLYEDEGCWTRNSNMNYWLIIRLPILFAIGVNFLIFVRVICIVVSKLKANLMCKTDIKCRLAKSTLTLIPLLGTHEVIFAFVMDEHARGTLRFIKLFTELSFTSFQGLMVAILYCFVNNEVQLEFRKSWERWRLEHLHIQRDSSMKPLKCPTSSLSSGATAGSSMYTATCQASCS
Glucagon receptor (Homo sapiens), sequence (P47871 whole entry): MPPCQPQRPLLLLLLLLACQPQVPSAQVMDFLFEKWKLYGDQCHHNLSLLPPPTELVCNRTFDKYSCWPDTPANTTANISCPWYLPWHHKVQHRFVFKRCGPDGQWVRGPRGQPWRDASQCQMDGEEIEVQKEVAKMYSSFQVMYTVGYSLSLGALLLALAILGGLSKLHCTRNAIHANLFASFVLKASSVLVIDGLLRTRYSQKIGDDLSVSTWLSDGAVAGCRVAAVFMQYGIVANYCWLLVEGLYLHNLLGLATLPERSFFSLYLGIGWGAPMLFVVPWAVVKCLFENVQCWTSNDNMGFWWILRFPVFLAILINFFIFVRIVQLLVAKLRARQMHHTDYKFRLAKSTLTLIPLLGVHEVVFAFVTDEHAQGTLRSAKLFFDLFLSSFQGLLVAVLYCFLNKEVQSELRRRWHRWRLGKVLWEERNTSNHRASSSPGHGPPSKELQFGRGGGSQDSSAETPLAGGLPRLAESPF

| Compound | EC50 [1] | also measured |
| --- | --- | --- |
| N#CCSc1nnc(-c2ccc3c(c2)nc(CN2CCC(c4cccc(OCc5ccc(Cl)cc5F)n4)CC2)n3C[C@@H]2CCO2)[nH]1 | 0.67 nM |  |
| CCSc1nnc(-c2ccc3c(c2)nc(CN2CCC(c4cccc(OCc5ccc(Cl)cc5F)n4)CC2)n3C[C@@H]2CCO2)[nH]1 | 1.1 nM |  |
| CC(=O)CSc1nnc(-c2ccc3c(c2)nc(CN2CCC(c4cccc(OCc5ccc(Cl)cc5F)n4)CC2)n3C[C@@H]2CCO2)[nH]1 | 0.66 nM |  |
| N#Cc1ccc(COc2cccc(C3CCN(Cc4nc5ccc(C(=O)O)cc5n4C[C@@H]4CCO4)CC3)n2)c(F)c1 |  | Activity (Pancreatic islet): Active; Activity (Mus musculus [2]): Active; Activity (Mus musculus [3]): Active |
| CN(C)c1nnc(-c2ccc3c(c2)nc(CN2CCC(c4cccc(OCc5ccc(Cl)cc5F)n4)CC2)n3C[C@@H]2CCO2)[nH]1 | 6.8 nM |  |
| NC(=O)NCCSc1nnc(-c2ccc3c(c2)nc(CN2CCC(c4cccc(OCc5ccc(Cl)cc5F)n4)CC2)n3C[C@@H]2CCO2)[nH]1 | 0.11 nM | EC50 [4]: 364 nM; EC50 [5]: 349 nM |
| NC(=O)CCCSc1nnc(-c2ccc3c(c2)nc(CN2CCC(c4cccc(OCc5ccc(Cl)cc5F)n4)CC2)n3C[C@@H]2CCO2)[nH]1 | 0.1 nM | EC50 [4]: 566 nM; EC50 [5]: 322 nM |
| CCc1nnc(-c2ccc3c(c2)nc(CN2CCC(c4cccc(OCc5ccc(Cl)cc5F)n4)CC2)n3C[C@@H]2CCO2)[nH]1 | 0.75 nM |  |
| OCCCSc1nnc(-c2ccc3c(c2)nc(CN2CCC(c4cccc(OCc5ccc(Cl)cc5F)n4)CC2)n3C[C@@H]2CCO2)[nH]1 | 0.48 nM |  |
| CC(C)Sc1nnc(-c2ccc3c(c2)nc(CN2CCC(c4cccc(OCc5ccc(Cl)cc5F)n4)CC2)n3C[C@@H]2CCO2)[nH]1 | 5.2 nM |  |
| COCCSc1nnc(-c2ccc3c(c2)nc(CN2CCC(c4cccc(OCc5ccc(Cl)cc5F)n4)CC2)n3C[C@@H]2CCO2)[nH]1 | 3.4 nM |  |
| CSc1nnc(-c2ccc3c(c2)nc(CN2CCC(c4cccc(OCc5ccc(Cl)cc5F)n4)CC2)n3C[C@@H]2CCO2)[nH]1 | 0.67 nM |  |
| Fc1cc(Cl)ccc1COc1cccc(C2CCN(Cc3nc4cc(-c5nnc(C(F)(F)F)[nH]5)ccc4n3C[C@@H]3CCO3)CC2)n1 | 0.46 nM |  |
| CC(C)CSc1nnc(-c2ccc3c(c2)nc(CN2CCC(c4cccc(OCc5ccc(Cl)cc5F)n4)CC2)n3C[C@@H]2CCO2)[nH]1 | 22 nM |  |
| COc1nnc(-c2ccc3c(c2)nc(CN2CCC(c4cccc(OCc5ccc(Cl)cc5F)n4)CC2)n3C[C@@H]2CCO2)[nH]1 | 0.88 nM |  |
| Fc1cc(Cl)ccc1COc1cccc(C2CCN(Cc3nc4cc(-c5nnc(SCC6CC6)[nH]5)ccc4n3C[C@@H]3CCO3)CC2)n1 | 50 nM |  |
| N=C(CSc1nnc(-c2ccc3c(c2)nc(CN2CCC(c4cccc(OCc5ccc(Cl)cc5F)n4)CC2)n3C[C@@H]2CCO2)[nH]1)NO | 0.52 nM |  |
| NC(=O)CCCCSc1nnc(-c2ccc3c(c2)nc(CN2CCC(c4cccc(OCc5ccc(Cl)cc5F)n4)CC2)n3C[C@@H]2CCO2)[nH]1 | 0.62 nM |  |

Continued, in another order:

| EC50 [1] | Compound | also measured |
| --- | --- | --- |
| 2.5 nM | Fc1cc(Cl)ccc1COc1cccc(C2CCN(Cc3nc4cc(-c5nnc(SCc6ncc[nH]6)[nH]5)ccc4n3C[C@@H]3CCO3)CC2)n1 |  |
| 4 nM | OCCCCSc1nnc(-c2ccc3c(c2)nc(CN2CCC(c4cccc(OCc5ccc(Cl)cc5F)n4)CC2)n3C[C@@H]2CCO2)[nH]1 |  |
| 0.42 nM | NCCSc1nnc(-c2ccc3c(c2)nc(CN2CCC(c4cccc(OCc5ccc(Cl)cc5F)n4)CC2)n3C[C@@H]2CCO2)[nH]1 |  |
| 1 nM | O=C(O)CSc1nnc(-c2ccc3c(c2)nc(CN2CCC(c4cccc(OCc5ccc(Cl)cc5F)n4)CC2)n3C[C@@H]2CCO2)[nH]1 |  |
| 0.35 nM | NC(=O)CSc1nnc(-c2ccc3c(c2)nc(CN2CCC(c4cccc(OCc5ccc(Cl)cc5F)n4)CC2)n3C[C@@H]2CCO2)[nH]1 |  |
| 0.38 nM | O=C1NCC(CSc2nnc(-c3ccc4c(c3)nc(CN3CCC(c5cccc(OCc6ccc(Cl)cc6F)n5)CC3)n4C[C@@H]3CCO3)[nH]2)O1 (stereo partly drawn) |  |
| 0.065 nM | OCCSc1nnc(-c2ccc3c(c2)nc(CN2CCC(c4cccc(OCc5ccc(Cl)cc5F)n4)CC2)n3C[C@@H]2CCO2)[nH]1 | EC50 [4]: 936 nM; EC50 [5]: 581 nM; Activity [6]: inactive; Activity [7]: inactive; Activity [8]: inactive; Activity (Pancreatic islet): Active; Activity (Mus musculus [2]): Active; Activity (Mus musculus [3]): Active; Activity (Mus musculus [9]): 50% |
| 2.8 nM | N=C(N)CSc1nnc(-c2ccc3c(c2)nc(CN2CCC(c4cccc(OCc5ccc(Cl)cc5F)n4)CC2)n3C[C@@H]2CCO2)[nH]1 |  |
| 8.5 nM | CSc1nnc(-c2ccc3c(c2)nc(CN2CCC(c4cccc(OCc5ccc(Cl)cc5F)n4)CC2)n3C[C@@H]2CCO2)n1C |  |
| 0.59 nM | NC(=O)CCSc1nnc(-c2ccc3c(c2)nc(CN2CCC(c4cccc(OCc5ccc(Cl)cc5F)n4)CC2)n3C[C@@H]2CCO2)[nH]1 |  |

Reference: ChEMBL document CHEMBL5550163, “A novel approach to exploit Small-Molecule glucagon-like Peptide-1 receptor agonists with high potency” (Bioorg Med Chem, 2024)
